For assay [1], the system named is KG1 (Acute Myelogenous Leukemia). The experiment in a line: Toxicity assay with or without rotenone. The note with it: 72 hours. The format is cell-based. The procedure: (§1) Toxicity assay: Cells were growing in 96 well plates in DMEM F12 with 17 mM glucose, 0.5 mM Sodium Pyruvate, 1 mM Glutamine and 3% FBS. The cells were treated with the indicated compounds (10 different concentrations) with or without 25 nM rotenone. Viability was determined after 72 hours of treatment using CellTiter Glo reagent (Promega). EC50 was calculated using Prism software.

Another assay has as its system OV-90 (Ovarian cancer). The experiment in a line: Toxicity assay with or without rotenone. The format is cell-based. Conditions: Homo sapiens, 72 hours. The procedure: as §1
For assay [2], the system named is SDH-KO, Murine HRAS-transformed, SDHB-deficient cells. Nature of the assay: Toxicity assay with or without rotenone. The format is cell-based. Conditions: Mus musculus, 72 hours. The procedure: as §1
The test system of assay [3] is SDH-WT, Murine HRAS-transformed cells. The experiment in a line: Toxicity assay with or without rotenone. Type of assay: cell-based. Conditions: Mus musculus, 72 hours. The procedure: as §1
In assay [4] the test system is THP1 (Acute Monocytic Leukemia). Nature of the assay: Toxicity assay with or without rotenone. The format is cell-based. The note with it: Homo sapiens, THP-1, 72 hours. The procedure: as §1
The test system of assay [5] is 2-DeoxyGlucose phosphorylation in murine SDH-WT cells. Nature of the assay: 2 DG phosphorylation assay. The note with it: Mus musculus, 0.25 h, 15 min, LC-MS. The format is cell-based. The procedure:
IC50 of compound 145 and GluT1 inhibitor […] in a 2 DG phosphorylation assay was done using murine SDH-WT cells. The cells were treated for 15 min with the indicated compound at different concentrations in the presence of 2 DG. 2 DG phosphorylation was determined by LC-MS analysis and the inhibition IC50 was determined by Prism software.

For assay [6], the system named is m+3 lactate secretion (glycolysis) in SDH-KO cells. The experiment in a line: Glycolysis inhibition (IC50 Lactate m+3). The note with it: 1 h, 25 mM 13C-glucose, one hour. Type of assay: cell-based. The procedure: (§2) Glycolysis Inhibition (IC50 Lactate m+3)
(§3) Cell were plated in DMEM, 25 mM Glucose, 1 mM Pyruvate, 1 mM Glutamine and 10% Dialyzed serum in 96 well plates in triplicates. The day after the medium was replaced to fresh medium with 25 mM ^13C-glucose and treated with different concentrations of the compounds as indicated. One hour later the medium was collected and the level of m+3 lactate was determined by LC-MS. The IC50 of inhibition of m+3 lactate secretion into the medium was calculated with Prism.

In assay [7] the test system is m+3 lactate secretion (glycolysis) in SDH-WT cells. The experiment in a line: Glycolysis inhibition (IC50 Lactate m+3). Type of assay: cell-based. The note with it: 1 h, 25 mM 13C-glucose, one hour. The procedure: as §2, §3
Another assay concerns UOK269 (SDHB-def.) RCC. The experiment in a line: Cell viability in SDH-deficient/proficient isogenic pairs. The format is cell-based, Human. The procedure: (§4) The cells were grown in DMEM F12 supplemented with 1 mM Glutamine+3% FBS were treated with different concentrations of the indicated compounds. Cell viability was determined 72 hours later by CellTiter Glue reagent (Promega), the luminescence was measured with ClarioStar reader (BMG) and the EC50s were calculated by Prism. Murine SDHB-WT/KO, HRAS transformed isogenic pair (FIG. 12A); UOK269, Human Tumor-derived SDHB-deficient RCC in their WT counterpart with re-expression of SDHB (FIG. 12B); and ACHN, RCC cells, and their SDHB-KO (SDHB CRISPRed out) isogenic cells (FIG. 12C).

Assay [8] deals with UOK269-WT (re-expression of SDHB). The assay is described as above. The format is cell-based, Human. The procedure:
as §4

Assay [9] concerns ACHN SDHB −/− (SDHB CRISPRed out). The assay is described as above. The format is cell-based. The procedure: as §4
A further assay concerns ACHN WT, RCC cells. The description is as above. Type of assay: cell-based. The procedure: as §4
The target in assay [10] is T1, GLUT1 transporter (DLD1 cells) (Homo sapiens, UniProt P11166).
T1 construct: DLD1 cells for GLUT1 transporter; endogenous in cells; host or cells: DLD1 (DLD1-WT)
Nature of the assay: Glucose transporter selectivity assay. Type of assay: cell-based. The note with it: 5 mM glucose, 1 uM Rotenone, 15 min, read-out: IC50 (nM) DLD1-WT Glust1. The procedure: (§5) Glucose transporter selectivity assays were done as described by Siebeneicher et al (ChemMedChem 2016, 11, 1-12) with the following adjustments; DLD1 cells for GLUT1 transporter, DLD1-GLUT1−/− cells (Horizon discovery) for GLUT3 transporter and DLD1-GLUT1−/− overexpressing hGLUT2 cells for GLUT2 transporter. The cells were plated overnight in 96-well plate at 80% confluency in starvation medium (DMEM without glucose, 0.5 mM glutamine, 1 mM pyruvate and 1% FBS). The cells were then pretreated for 30 min with 1 uM Rotenone and the inhibitors (compound 145) at different concentrations. The assay was initiated by adding glucose (5 mM for DLD1 cells, 10 mM for DLD1-Glut1−/−) or fructose (10 mM for DLD1-Glut1−/−(hGLUT2) cells) and the plates were incubated for 15 min at 37° C. At the end of the incubation Cell-titer Glo was added to the wells and luminescence was measured. The inhibition IC50 was calculated using Prism software.

Assay [11] has as its target T2, GLUT2 transporter (DLD1-GLUT1−/− overexpressing hGLUT2 cells) (Homo sapiens, UniProt P11168).
T2 construct: expressed in transfected cells; host or cells: DLD1-GLUT1−/−
The experiment in a line: Glucose transporter selectivity assay. The format is cell-based. Conditions: 10 mM fructose, 1 uM Rotenone, 15 min, read-out: IC50 (nM) DLD-Glut1−/− (Glut2) Glut2. The procedure: as §5

The target in assay [12] is T3, GLUT3 transporter (DLD1-GLUT1−/− cells) (Homo sapiens, UniProt P11169).
T3 construct: DLD1-GLUT1−/− cells (Horizon discovery) for GLUT3 transporter; host or cells: DLD1-GLUT1−/−
The experiment in a line: Glucose transporter selectivity assay. Type of assay: cell-based. Conditions: 10 mM glucose, 1 uM Rotenone, 15 min, read-out: IC50 (nM) DLD-Glut1−/− Glut3. The procedure:
as §5

Setting [13] is: with 25 nM rotenone, read-out: EC50 (nM) with Rotenone.
Setting [14] is: without rotenone, read-out: EC50.
The mark [15] stands for this setting: Homo sapiens, tumor-derived, 72 hours.
Where [16] appears, read: Homo sapiens, cancer cells, 72 hours.

Like-named read-outs stand apart in the source and are kept apart here.

T2 sequence (P11168 whole entry): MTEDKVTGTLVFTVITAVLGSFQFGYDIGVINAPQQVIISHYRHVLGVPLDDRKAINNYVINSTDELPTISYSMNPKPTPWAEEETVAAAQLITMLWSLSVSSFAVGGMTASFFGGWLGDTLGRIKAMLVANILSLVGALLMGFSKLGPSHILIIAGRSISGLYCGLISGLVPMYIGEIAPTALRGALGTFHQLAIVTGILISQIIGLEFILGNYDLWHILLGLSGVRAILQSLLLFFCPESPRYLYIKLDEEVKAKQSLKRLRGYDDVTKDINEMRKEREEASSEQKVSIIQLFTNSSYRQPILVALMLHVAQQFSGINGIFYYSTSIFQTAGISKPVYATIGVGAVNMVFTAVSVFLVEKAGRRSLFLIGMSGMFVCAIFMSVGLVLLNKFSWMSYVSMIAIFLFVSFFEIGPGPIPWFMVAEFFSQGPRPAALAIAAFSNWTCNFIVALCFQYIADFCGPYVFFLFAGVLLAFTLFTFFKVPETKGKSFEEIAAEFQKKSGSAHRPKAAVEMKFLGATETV
T3 sequence (P11169 whole entry): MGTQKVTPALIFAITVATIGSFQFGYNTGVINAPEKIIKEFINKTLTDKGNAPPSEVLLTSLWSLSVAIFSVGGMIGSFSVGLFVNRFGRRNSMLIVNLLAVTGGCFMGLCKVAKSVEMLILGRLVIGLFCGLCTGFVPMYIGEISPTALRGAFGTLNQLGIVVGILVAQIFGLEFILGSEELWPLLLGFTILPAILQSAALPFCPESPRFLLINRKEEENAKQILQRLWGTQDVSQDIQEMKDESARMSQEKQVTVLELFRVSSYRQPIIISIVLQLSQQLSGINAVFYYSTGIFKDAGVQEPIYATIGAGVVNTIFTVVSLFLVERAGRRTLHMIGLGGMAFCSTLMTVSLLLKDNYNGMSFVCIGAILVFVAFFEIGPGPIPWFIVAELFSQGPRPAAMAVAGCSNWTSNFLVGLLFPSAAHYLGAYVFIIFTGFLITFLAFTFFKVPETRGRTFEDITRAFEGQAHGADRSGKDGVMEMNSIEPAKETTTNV
T1 sequence (P11166 whole entry): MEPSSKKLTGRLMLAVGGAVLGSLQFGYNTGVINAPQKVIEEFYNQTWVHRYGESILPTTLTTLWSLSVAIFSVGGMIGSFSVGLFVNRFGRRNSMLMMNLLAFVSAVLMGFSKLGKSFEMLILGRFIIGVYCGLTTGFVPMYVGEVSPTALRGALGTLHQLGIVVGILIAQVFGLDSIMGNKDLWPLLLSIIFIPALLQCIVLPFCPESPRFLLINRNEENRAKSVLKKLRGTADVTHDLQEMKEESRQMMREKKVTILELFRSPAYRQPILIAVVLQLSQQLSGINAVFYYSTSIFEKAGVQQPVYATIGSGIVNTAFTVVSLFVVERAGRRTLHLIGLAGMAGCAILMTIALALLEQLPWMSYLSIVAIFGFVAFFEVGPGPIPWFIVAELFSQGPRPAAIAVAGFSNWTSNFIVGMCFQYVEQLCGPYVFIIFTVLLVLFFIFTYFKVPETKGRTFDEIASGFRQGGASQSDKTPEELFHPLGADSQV

As for `CC1(C)Cc2nc3sc4c(NCCc5ccc6[nH]cnc6c5)ncnc4c3cc2CO1` [Compound 145], the EC50 (usually the concentration that produces a half-maximal response) amounted to 16 nM in assay [1] (KG1, with 25 nM rotenone, read-out: EC50 (nM) with Rotenone); 3200 nM in assay [1] (KG1, without rotenone, read-out: EC50); 15 nM in the assay with OV-90 (Ovarian cancer) (OV-90, with 25 nM rotenone, read-out: EC50 (nM) with Rotenone); 825 nM in the assay with OV-90 (Ovarian cancer) (OV-90, without rotenone, read-out: EC50); 3 nM in assay [2] (setting [13]); 3 nM in assay [2] (setting [14]). Also, the EC50 in assay [3] (setting [13]) stood at 3 nM; in assay [3] (setting [14]) it was 210 nM; in assay [4] (THP1, with 25 nM rotenone, read-out: EC50 (nM) with Rotenone), 16 nM; in assay [4] (THP1, without rotenone, read-out: EC50), 1100 nM; with UOK269 (SDHB-def.) RCC (setting [15]), 1.7 nM; in [8] (setting [15]), 1830 nM. Moreover, the EC50 amounted to 8.4 nM in assay [9] (setting [16]) and 13800 nM in the assay with ACHN WT, RCC cells (setting [16]). The IC50 was 9.7 nM in [5]; 6.1 nM in assay [6]; 1.7 nM in assay [7]; 19 nM in [10]; 14 nM in [11]; 2 nM in [12]. Further, the “Ratio BAY-876/COMP 145” value in the assay with UOK269 (SDHB-def.) RCC was 8.8; in assay [8] it was 2.9; in assay [9], 30; in the assay with ACHN WT, RCC cells it was 1.7.

These data come from patent US20230084927A1, “GLUCOSE UPTAKE INHIBITORS AND USES THEREOF” (METABOMED LTD., priority 2019, published 2023).
